{"source": "patent US9963480B2", "about": "“Nucleoside phosphoramidate compound and use thereof” (priority 2013, dated 2018)", "format_in_all_cases": "cell-based", "key": {"HCV 1b replicon": {"test_system": "HCV 1b replicon", "experiment": "Antiviral activity assay in HCV replicon system (Huh7 1b cells, luciferase reporter)", "details": "Hepatitis C virus, Huh-7; Huh7 1b cells with HCV 1b replicon, Bright-Glo luciferase, 72 h; read-out: EC50", "source_text": "The cell line Huh7 1b, which was provided by WuXi AppTec Co., Ltd. in Shanghai, contained an HCV 1b replicon with a stable Luciferase (Luc) reporter. It was constructed by cloning HCV nonstructural protein gene, neo (G418 resistance) and luciferase reporter gene into the pBR vector through gene recombination technology. Then the vector carrying the HCV replicon was transfected into Huh7 cells, and the transfected Huh7 cells were screened by G418 resistance. The HCV replicon was stably replicated, and the related protein and luciferase were stably expressed in Huh7 cells. The cells model was used for in-vitro screen of anti-HCV compounds. The anti-HCV activity of the compounds was measured by detecting the level of luciferase expression. See Lohmann V, et al. 1999. Replication of subgenomic hepatitis C virus RNAs in a hepatoma cell line. Science. 285(5424):110-113.\nThe control drug used in this experimental example was the compound of Example 25 in WO 2008/121634 (PCT/US2008/058183), i.e. (S)-2-{[(2R,3R,4R,5R)-5-(2,4-dioxo-3,4-dihydro-2H-pyrimidin-1-yl)-4-fluoro-3-hydr oxy-4-methyl-tetrahydro-furan-2-ylmethoxy]-phenoxy-phosphorylamino}-propanoic acid isopropyl ester. This compound was prepared according to the method described in J. Org. chem, 2011, 76, 8311-8319, and identified by H-NMR and mass spectrometry.\n• 2.1 compound preparation: adding each of the compounds listed in Table 2 to 96-well plates using a POD™ 810 Automation Platform (LabCyte Corporation, USA), with 10 μM of each of the compounds as a starting concentration and in duplicate; serially diluting each of the compounds in 3-fold fashion and formulating 10 concentrations, with the final concentration of DMSO being 0.5%; • 2.2 cells preparation: seeding the Huh71b cells into 96-well plates respectively with a volume of 125 μl and 8×10^3 cells/well, and incubating in a 37° C., 5% CO2 incubator for 72 h; • 2.3 detection of cell activity: adding 30 μl per cell of the CellTiter-Fluor™ Reagent, incubating in a 37° C., 5% CO2 incubator for 1 h, measuring the fluorescence signal values with a fluorometer, and using the obtained data for calculation of cytotoxicities of the compounds; • 2.4 Bright-Glo detection: adding 100 μl per well of the Bright-Glo™ Luciferase Substrate, using a chemiluminescence detection system EnVision™ (PerkinElmer, USA) to detect the fluorescence signal values within 5 minutes, and using the obtained data for calculation of potencies of the compounds. • 2.5 data processing: converting the obtained data to a percentage of cell viability (Viability %) using the following formula:\n[formula] • CPD: fluorescence signal value of the well added with the compound • ZPE (Zero percent effect): fluorescence signal value of the control well with zero percent effect. • Processing the raw data to calculate a percentage of inhibition (Inhibition %) using the following formula:\n[formula] • CPD: fluorescence signal value of the well added with the compound; • HPE (Hundred percent effect): fluorescence signal value of the control well with hundred percent effect; • ZPE (Zero percent effect): fluorescence signal value of the control well with zero percent effect.\nThe inhibition percentage was processed by the GraphPad Prism software to obtain the corresponding curves and EC50 values."}, "[1]": {"test_system": "J399EM (HCV genotype 2a) virus", "experiment": "Antiviral activity assay in the cell-culture-derived infectious HCV (HCVcc) system", "procedure": "The compound according to the above example 1 was used in this experiment. The compound was formulated into a 10 mM mother liquid with DMSO, diluted to 500 nM by DMEM complete culture medium containing 0.5% of DMSO, followed by 4-fold dilution successively, and six concentrations were obtained. The positive control was diluted to 10 μM by DMEM complete culture medium containing 0.5% of DMSO, followed by 4-fold successively, and six concentrations were obtained.\n(§1) Huh 7.5.1 cells, provided by Shanghai Institute of Materia Medica, Chinese Academy of Sciences.\nJ399EM (HCV genotype 2a) virus, i.e. a full length HCV mutant strain transfected with EGFP (enhanced green fluorescent protein) was used, which had the same infection capacity as the wild type JFH-1. The NS5A-EGFP fusion protein fluorescence was observed directly in infected cells by inserting EGFP coding sequence in the NS5A region. J399EM was provided by Shanghai Institute of Materia Medica, Chinese Academy of Sciences.\n(§2) • 1) Huh 7.5.1 cells preparation: collecting the Huh7.5.1 cells in logarithmic phase, resuspending in DMEM complete culture medium, seeding into 96-well plates (7×10^3 cells/well), and incubating in a 37° C., 5% CO2 incubator for 24 h; • 2) virus infection: resuspending J399EM viruses in DMEM complete culture medium, adding the virus supernatant (MOI≈0.1) to the above 96-well plates, and washing with PBS after 8 hours of infection; • 3) drug treatment: adding various concentrations of the compounds to the Huh7.5.1 cells infected by J399EM viruses, with each concentration in duplicate; setting the control group with zero percent effect (ZPE) and the control group with hundred percent effect (HPE); replacing the compound with the DMEM complete culture medium containing 0.5% DMSO in ZPE group, and using the cells not infected with viruses in HPE group. • 4) cells incubation: incubating the 96-well plates in a 37° C., 5% CO2 incubator for 72 hr; • 5) anti-HCV activity detection: reading the relative fluorescence units (RFU) of each well by EnVision® Multi label Plate readers after incubation, and calculating the anti-HCV activity of the compounds using the obtained data according to the following formula: Inhibition %=(RFUZPE−RFUCPD)/(RFUZPE−RFUHPE)×100 • wherein RFUZPE represents the relative fluorescence units of the control group with zero percent effect and RFUCPD represents the relative fluorescence units of the corresponding compound group, and RFUHPE represents the relative fluorescence units of the control group with hundred percent effect. • 6) Cell viability detection: adding MTT solution to each well, incubating in a 37° C., 5% CO2 incubator for 4 hr, followed by addition of MTT dissolving solution, reading optical density (OD) of each well at 570 nm by the Multi label Plate readers after 6 hr, calculating the cytotoxicity of the compounds using the obtained data according to the following formula: Viability %=ODCPD/ODZPE×100 • wherein ODZPE represents the optical density of the control group with zero percent effect, and ODCPD represents the optical density of the corresponding compound; • 7) Data processing: processing the Inhibition %, Viability % by GraphPad Prism Software respectively, and obtaining the half maximal effective concentration (EC50) values and half maximal cytotoxic concentration (CC50) values of the compounds against the HVCcc GT2a viruses."}, "[2]": {"experiment": "Cell viability detection (MTT) in the HCVcc system", "details": "human, Huh 7.5.1 cells infected with J399EM virus (HCVcc); Huh 7.5.1 cells, MTT, 72 hr", "procedure": "as §1, §2"}, "Huh 7.5.1 cells": {"test_system": "Huh 7.5.1 cells", "experiment": "Cell viability detection (MTT) in the HCVcc system", "details": "HCVcc system", "procedure": "as §1, §2"}}}
{"smiles": "CC(C)OC(=O)[C@H](C)NP(=O)(OC[C@H]1O[C@@H](n2ccc(=O)[nH]c2=O)[C@](C)(F)[C@@H]1O)Oc1ccc(-c2ccccc2)cc1", "note": "(stereo partly drawn) [Example 1, (2S)-2-((([1,1′-biphenyl]-4-yloxy)(((2R,3R,4R,5R)-5-(2,4-dioxo-3,4-dihydropyrimidin-1(2H)-yl)-4-fluoro-3-hydroxy-4-methyltetrahydrofuran-2-yl)methoxy)phosphoryl)amino)propanoic Acid Isopropyl Ester]", "values": [{"measurement": "EC50", "setting": "HCV 1b replicon", "value": 56, "unit": "nM"}, {"measurement": "antiviral activity compared with the positive control", "setting": "[1]; HCVcc system", "value": "excellent"}, {"measurement": "EC50", "setting": "[1]; Hepatitis C virus, Huh-7.5.1, 72 h", "value": 39, "unit": "nM"}, {"measurement": "CC50 at 72 h", "setting": "[2]", "value": "> 10000", "unit": "nM"}, {"measurement": "cell toxicity compared with the positive control", "setting": "Huh 7.5.1 cells", "value": "less"}]}
